# Columns and labels:
# [1] = tested on: high fat diet fed C57Bl6 mice; experiment: Mouse High Fat Dietary Model with fast/re-feed; format: in vivo; settings: for reduced body weight vs Vehicle: fast/re-feed
# Description: A standard model of human hyperlipidemia and insulin resistance is the mouse fed a high fat diet for several weeks (31, 33). Additionally, since hepatic lipid synthesis is known to be regulated by food consumption, the fast/re-feed cycle of Horton et al. (32) was incorporated into the chronic high fat diet model. The compound was evaluated in this model as an agent to restore insulin sensitivity and lower blood lipids. The chronic high fat diet was fed to mice to simulate a standard Western diet which is elevated in calories from high fat and carbohydrate intake. This and similar models of dietary induced obesity, insulin insensitivity and elevated serum lipids and cholesterol are used as mouse and rat models of human pathology including hyperlipidemia, type II diabetes, atherosclerosis, obesity, cardiovascular and liver disease. These models have been used as excellent predictors of efficacy in human clinical trials (PPAR and FXR agonists).
# The farnesoid X receptor (FXR) is a ligand-activated transcription factor and a member of the nuclear receptor superfamily. […] While the mechanism of action of FXR agonists is clearly distinct from PASK inhibition, WAY-362450 has been used as a positive control compound producing physiologically beneficial changes in glucose and lipid metabolism resembling inhibition of PASK. Throughout these in vivo assays, WAY-362450 has been used as a control compound, and will be referred to as such.
# Male C57Bl6 mice were obtained from Jackson Laboratories and had been fed a high fat diet (60% kcal fat) for eight weeks. The mice were fed an identical high fat diet (Research Diet D12492) upon arrival and during the study. All mice were treated with the subject compound at 30 or 100 mg/kg, control compound (WAY-362450) at 30 mg/kg or vehicle by oral gavage daily for three days. On the final day, 10 animals from each group began an 24 hour fast and then were sacrificed (fasted groups 1a,2a,3a,4a). Alternatively, 10 animals from each group underwent a 24 hour fast followed by a 12 hour re-feed period with the same high fat diet ad libitum and then were sacrificed (re-fed groups 1b,2b,3b,4b).
# Body weights were monitored at the start and end of the protocol. After completing the fast or fast/re-feed conditions, the mice were given avertin for anesthesia by intraperitoneal administration. Whole blood was collected by cardiac puncture and the mice were terminated by cervical dislocation. Livers were collected surgically, weighed and immediately frozen in liquid nitrogen. The blood was placed in Li-heparin treated tubes, centrifuged to collect plasma and the plasma frozen.
# The plasma was analyzed by standard colorimetric assays for glucose, insulin, triglycerides and cholesterol. Frozen liver samples were pulverized and extracted in ethanolic KOH and analyzed for liver triglycerides and cholesterol.
# [2] = tested on: high fructose diet fed Sprague Dawley rats; experiment: Rat High Fructose Model with Fast/Re-Feed; format: in vivo
# Description: Another standard model of human hyperlipidemia and insulin resistance is the rat fed a high fructose diet for several weeks (33). Additionally, since hepatic lipid synthesis is known to be regulated by food consumption, the fast/reefed cycle of Horton et al. (32) was incorporated into the chronic high fructose diet model. A compound disclosed above was evaluated in this model as an agent to restore insulin sensitivity and lower blood lipids.
# Eight week old male Sprague Dawley rats were purchased from Harlan, Inc. The rats weighed 200-225 g upon arrival and were divided into groups as detailed in Table 2 and were immediately placed on a high fructose diet (60% kcal fructose; Open Source Diet #D00111301) ad libitum for three weeks. During the last week of feeding the high fructose diet, the rats were dosed with vehicle (5% solutol, 8% β cyclo-dextrin), subject compound at 30 mg/kg or 100 mg/kg or the control compound at 30 mg/kg by oral gavage once daily for 7 days. On the final day, all animals were placed on a […] followed by a 12 hour re-feed period on the high fructose diet ad libitum. Body weights were monitored throughout the protocol. After completing the fast or fast/re-feed conditions, the rats were given avertin for anesthesia by intraperitoneal administration. Whole blood was collected by cardiac puncture and the rats were terminated by cervical dislocation. Livers were collected surgically, weighed and immediately frozen in liquid nitrogen. The blood was placed in Li-heparin treated tubes, centrifuged to collect plasma and the plasma frozen.
# The plasma was analyzed by standard colorimetric assays for glucose, insulin, triglycerides and cholesterol.
# [3] = 30 mg/kg oral once daily for 7 days
# [4] = fast and re-feed, 30 mg/kg for 7 days
# [5] = 100 mg/kg oral once daily for 7 days
# [6] = fast and re-feed, 100 mg/kg for 7 days
smiles,measurement,setting,value
"CC(C)OC(=O)C1=CN(C(=O)c2ccc(F)c(F)c2)CC(C)(C)c2c1[nH]c1ccccc21 [control compound, WAY-362450, reference compound]",effects on liver weight,[1]; 30 mg/kg oral daily for three days,identical to those of the subject compound at the same dose
same,body weight relative to the Vehicle group (FIG. 1),[2]; [3],significant increase in body weight
same,increase in liver weight,[2]; [3],about 2 g
same,increased liver weights,[2]; [3],about 15%
same,effect on plasma glucose concentrations,[2]; [4],did not alter plasma glucose concentrations
CC(C)N(C)c1nc2cc(C(=O)O)ccc2nc1-c1ccc(F)cc1 [subject compound],reductions in liver weights,[1]; 30 and 100 mg/kg oral daily for three days,7-9%
same,decreased plasma glucose vs vehicle,"[1]; fast and re-feed, 100 mg/kg (highest dose)",up to 21%
same,reduced body weight vs Vehicle,[1]; 30 mg/kg oral gavage daily for three days,2.7%
same,reduced body weight vs Vehicle,[1]; 100 mg/kg oral gavage daily for three days,5.1%
same,decreased plasma insulin vs vehicle,"[1]; fasted and re-fed, 30 mg/kg",10%
same,decreased plasma insulin vs vehicle,"[1]; fasted and re-fed, 100 mg/kg",28%
same,decreased plasma glucose vs vehicle,"[1]; fasted only, 30 mg/kg",30%
same,decreased body weight vs Vehicle Fasted,"[1]; fasted only, 30 mg/kg oral daily for three days",1.8%
same,decreased plasma glucose vs vehicle,"[1]; fasted only, 100 mg/kg",43%
same,decreased body weight vs Vehicle Fasted,"[1]; fasted only, 100 mg/kg oral daily for three days",5.1%
same,decreased plasma insulin vs vehicle,"[1]; fasted only, 30 and 100 mg/kg",up to 26%
same,body weight relative to the Vehicle group (FIG. 1),[2]; [3],modest increase in body weight
same,body weight relative to the Vehicle group (FIG. 1),[2]; [5],modest decrease in body weight
same,maximal reduction in liver weight,[2]; [5],about 4%
same,decrease in plasma glucose vs vehicle,[2]; [4],21.5%
same,insulin levels reduced vs vehicle,[2]; [4],15.4%
same,plasma cholesterol decreased vs vehicle,[2]; [4],5.7%
same,decrease in plasma glucose vs vehicle,[2]; [6],26.3%
same,insulin levels reduced vs vehicle,[2]; [6],31.4%
same,plasma cholesterol decreased vs vehicle,[2]; [6],10%

# — US11459307B2, “Heterocyclic compounds for the inhibition of PASK” (BioEnergenix LLC, priority 2009, dated 2022)
